The values below come from US20240083919A1, “Metal Complexes and Methods for the Same” (Colgate-Palmolive Company, priority 2020, published 2024).

In brackets after ≈: the same amount, converted by molar mass. Like-named read-outs stand apart in the source and are kept apart here.

Assay [1] deals with Malassezia furfur. Briefly: MIC by doubling dilutions, visual turbidity, Malassezia furfur. It counts as cell-based. To be noted: for MIC: about 35° C., 3 to 5 days, highest dilution that completely inhibited growth; for Final Dilution (Ratio): doubling dilutions from initial concentration 0.5% (CHA-Zn) or 1% (others). On the procedure:
A suspension of Malassezia furfur was also prepared and exposed to each of the series of doubling dilutions. The samples were incubated at about 35° C. for 3 to 5 days or until growth was apparent in a growth control tube. Following incubation, each of the samples were visually examined for growth on the basis of turbidity.

Assay [2] concerns Trichophyton rubrum. Briefly: MIC by doubling dilutions, visual turbidity, Trichophyton rubrum. It counts as cell-based. To be noted: for Final Dilution (Ratio): doubling dilutions from initial concentration 0.5% (CHA-Zn) or 1% (others); for MIC: about 35° C., 3 to 14 days, highest dilution that completely inhibited growth. The procedure:
A suspension of Trichophyton rubrum was also prepared and exposed to each of the series of doubling dilutions. The samples were incubated at about 35° C. for 3 to 14 days or until growth was apparent in a growth control tube. Following incubation, each of the samples were visually examined for growth on the basis of turbidity. […] It should be appreciated that a relatively lower MIC value indicates a relatively greater efficacy against the microbe.

Turning to `Cc1cc(CC(C)CC(C)(C)C)n(O)c(=O)c1.NCCO` (stereo not drawn) [Piroctone Olamine], in assay [1], the MIC was found to be 156 ppm and the “Final Dilution (Ratio)” value is on record as 64 Ratio.
“caprylhydroxamic-zinc complex [CHA-Zn complex]”: the “Final Dilution (Ratio)” value in assay [1] and in assay [2] was 64 Ratio in each case.
As for zinc pyrithione [Zinc pyrithione (ZPT)], in assay [2], the MIC came out at 20 ppm and the “Final Dilution (Ratio)” value came out at 512 Ratio.
Regarding `CCCCCCCC(=O)NO` [CHA, caprylhydroxamic acid], the MIC was roughly 312 µg/mL (≈ 1960 µM) in assay [1] (read-out: MIC) and roughly 156 µg/mL (≈ 980 µM) in assay [2] (read-out: MIC). The “Final Dilution (Ratio)” value in assay [1] stood at 32 Ratio; in assay [2] it was 64 Ratio.
As to `O=[N+]([O-])[O-].O=[N+]([O-])[O-].[Zn+2]` [Zinc Nitrate (Zn(NO3)2), zinc nitrate], the figures for the MIC in assay [1], in assay [1] (listed as zinc nitrate) and in assay [2] were greater than 5000 ppm, greater than 5000 ppm and roughly 2500 ppm, respectively. In addition, the “Final Dilution (Ratio)” value in assay [1] is reported as 2 Ratio; in assay [2], 4 Ratio.
